This note sets out measurements from patent publication US7371779B2, “Synergistic compositions of N-acylhomoserine lactones and 4-quinolones” (The Secretary of State for Defense Science and Technology, priority 2001, dated 2008).

Structures are written as SMILES. Entries after “also recorded” stand apart in the source; their conditions may differ.

Usually IC50 stands for the midpoint of a concentration-inhibition curve.

The test system of one assay is TNF-alpha. Briefly: TNF-alpha production from LPS-stimulated human PBMC (sandwich ELISA). Type of assay: cell-based. The conditions noted are these: for inhibition of LPS induced TNF-α production by human PBMC, in words: LPS-stimulated human PBMC. Here is the method:
Bacterial lipopolysaccharide (LPS) stimulates the production of a variety of cytokines, including TNF-alpha, from human PBMC; these cytokines in turn influence the development of T cells, supporting a T helper 1 conducive milieu. Human PBMC prepared from whole blood by buoyant density centrifugation were resuspended in CTCM. […] Following incubation for 24 h at 37° C. in 5% CO2-air, the cell culture supernatants were collected and tested for TNF-alpha levels by ‘sandwich’ ELISA. Briefly, 96-well Nunc MaxiSorp (Life Technologies, Paisley, UK) plates were coated with 50 μl of a 2 μg/ml solution of mouse anti-human TNF-alpha monoclonal antibody (Pharmingen, UK) in 0.05 M carbonate/bicarbonate buffer, pH 9.6 overnight at 4° C. After washing the plates three times with PBS-Tween, which contained phosphate buffered saline (PBS) with 0.5% (vol/vol) Tween 20 (Sigma, Poole, UK), the plates were blocked with 1% (wt/vol) bovine serum albumin (BSA) (Sigma, Poole, UK) at room temperature for 2 h. Following three washes with PBS-Tween, 50 μl of cell culture supernatants were added and incubated overnight at 4° C.; standard human TNF-alpha (Pharmingen, UK) ranging from 2000 to 31.25 pg/ml were included for each plate. After four washes with PBS-Tween, 50 μl of a second antibody, biotinylated mouse anti-human TNF-alpha monoclonal antibody (Pharmingen, UK) was added at 0.5 μg/1 ml diluted in 1% BSA in PBS-Tween and incubated at room temperature for 1 h. Following four washes, the bound biotinylated antibody was detected with 50 μl of a 1:1,000 dilution of Streptavidin-peroxidase (Pharmingen, UK). At the end of an hour incubation at room temperature, the plates were thoroughly washed six times with PBS-Tween and the assay was developed by the addition of 100 μl of 0.1 mg/ml of tetramethyl benzidine subtrate (Sigma, Poole, UK) in 0.1 M sodium acetate buffer, pH 6 containing 0.03% H2O2. The enzyme reaction was stopped with 50 μl of 2.5 M H2SO4 after an incubation of 10 minutes at room temperature and the development was read at 450 nm with a spectrophotometric 96-well plate reader (Dynex).
A general note: In an ELISA, binding on a coated surface is turned into a signal by an enzyme label.

For another assay, the system named is hPBMC. Briefly: Cell proliferation of hPBMC stimulated with anti-CD3 and anti-CD28. The conditions noted are these: four donors; for inhibition of proliferation of hPBMC stimulated via CD3 and CD28, in words: 0.78125 to 100 μM. Type of assay: cell-based, human. As to the method:
Anti-CD3 and anti-CD28 antibodies were used to assess the effect of quorum sensing signal molecules (PQS, OdDHL and OHHL) on T-cell proliferation and IL-2 secretion. Proliferation was assessed by the incorporation of [^3H]-thymidine into the DNA of PBMC and the release of cytokines in the culture supernatants was determined by ‘sandwich’ ELISA. Blood specimens were obtained with consent from four healthy human volunteers (aged between 20 and 50 years). Human PBMC were isolated from heparinised whole blood by buoyant density centrifugation over Histopaque 1077 (Sigma, Poole, UK) at 600 g for 20 minutes. PBMC harvested from the ‘buffy’ layers were washed twice with RPMI 1640 medium and resuspended in complete cell culture medium (CTCM) consisting of RPMI 1640 medium with 5% FCS, 2 mM L-glutamine, and 5×10^−5 M 2-mercaptoethanol. The quorum sensing molecules, of which stock solutions of 0.1 M were soluble in DMSO, were initially diluted into CTCM and then tested in triplicate wells at concentrations ranging from 0.78125 to 100 μM in 200 μl of CTCM, containing 100,000 hPBMC which were challenged with 100 ng/ml of mouse anti-human CD3 monoclonal antibody (clone UCHT1; BD Pharmingen, UK) and 5 μg/ml of mouse anti-human CD28 monoclonal antibody (clone CD28.2; BD Pharmingen, UK). hPBMC were incubated for 24 h at 37° C. in 5% CO2-air and 50 μl of culture supernatants were removed for the determination of IL-2 (see IV.II below). The cells were returned for a further 24 h culture, followed by pulsing with 0.25 μCi [^3H]-thymidine (Amersham) in 10 μl volume made up in RPMI 1640 medium. After a further incubation of 24 h, cells were harvested onto 96-well filter plates (Unifilter Filtermate Harvester™, Packard Bioscience Ltd, UK). Following the addition of 25 μl of scintillant (MicroScint-O™; Packard Bioscience Ltd. UK) to each well in the filter plates, the radioactivity in the filters was measured with a β-scintillation counter (TopCount™, Packard Bioscience Ltd, UK) according to manufacturer's specifications. […]

For `CCCCCCCCCC(=O)CC(=O)N[C@H]1CCOC1=O` [Example 6], the IC50 with TNF-alpha (Experiment III, read-out: IC50 in inhibition of LPS induced production of TNF-α by human PBMC) turned out to be 17 µM. Further, the “inhibition of LPS induced TNF-α production by human PBMC, in words” value with TNF-alpha (listed as OdDHL) is recorded as “inhibited the secretion”. Further, in the assay on hPBMC (listed as OdDHL), the “inhibition of proliferation of hPBMC stimulated via CD3 and CD28, in words” value is recorded as “inhibited, in a dose dependent manner; also recorded: inhibit the proliferation of stimulated hPBMC”.
For `CCCCCCCc1[nH]c2ccccc2c(=O)c1O` [PQS], the “inhibition of LPS induced TNF-α production by human PBMC, in words” value with TNF-alpha was “not inhibited”. In the assay with hPBMC, the “potency relative to OdDHL in inhibition of CD3/CD28 stimulated hPBMC proliferation” value is given as “consistently more potent than OdDHL”; the “inhibition of proliferation of hPBMC stimulated via CD3 and CD28, in words” value is “inhibited, in a dose dependent manner; also recorded: inhibit the proliferation of stimulated hPBMC”.
